Results taken from the Kinase Knowledgebase extract (Sharma et al. 2016).

What was measured:
Experiment in all cases: Enzyme Assay
PIK3CB (Human) = PIK3CB (Human) (UniProt P42338)
PIK3CD (Human) = PIK3CD (Human) (UniProt O00329)
PIK3CG (human) = PIK3CG (human) (UniProt P48736)
PIK3CG (human), sequence (P48736 whole entry, looked up): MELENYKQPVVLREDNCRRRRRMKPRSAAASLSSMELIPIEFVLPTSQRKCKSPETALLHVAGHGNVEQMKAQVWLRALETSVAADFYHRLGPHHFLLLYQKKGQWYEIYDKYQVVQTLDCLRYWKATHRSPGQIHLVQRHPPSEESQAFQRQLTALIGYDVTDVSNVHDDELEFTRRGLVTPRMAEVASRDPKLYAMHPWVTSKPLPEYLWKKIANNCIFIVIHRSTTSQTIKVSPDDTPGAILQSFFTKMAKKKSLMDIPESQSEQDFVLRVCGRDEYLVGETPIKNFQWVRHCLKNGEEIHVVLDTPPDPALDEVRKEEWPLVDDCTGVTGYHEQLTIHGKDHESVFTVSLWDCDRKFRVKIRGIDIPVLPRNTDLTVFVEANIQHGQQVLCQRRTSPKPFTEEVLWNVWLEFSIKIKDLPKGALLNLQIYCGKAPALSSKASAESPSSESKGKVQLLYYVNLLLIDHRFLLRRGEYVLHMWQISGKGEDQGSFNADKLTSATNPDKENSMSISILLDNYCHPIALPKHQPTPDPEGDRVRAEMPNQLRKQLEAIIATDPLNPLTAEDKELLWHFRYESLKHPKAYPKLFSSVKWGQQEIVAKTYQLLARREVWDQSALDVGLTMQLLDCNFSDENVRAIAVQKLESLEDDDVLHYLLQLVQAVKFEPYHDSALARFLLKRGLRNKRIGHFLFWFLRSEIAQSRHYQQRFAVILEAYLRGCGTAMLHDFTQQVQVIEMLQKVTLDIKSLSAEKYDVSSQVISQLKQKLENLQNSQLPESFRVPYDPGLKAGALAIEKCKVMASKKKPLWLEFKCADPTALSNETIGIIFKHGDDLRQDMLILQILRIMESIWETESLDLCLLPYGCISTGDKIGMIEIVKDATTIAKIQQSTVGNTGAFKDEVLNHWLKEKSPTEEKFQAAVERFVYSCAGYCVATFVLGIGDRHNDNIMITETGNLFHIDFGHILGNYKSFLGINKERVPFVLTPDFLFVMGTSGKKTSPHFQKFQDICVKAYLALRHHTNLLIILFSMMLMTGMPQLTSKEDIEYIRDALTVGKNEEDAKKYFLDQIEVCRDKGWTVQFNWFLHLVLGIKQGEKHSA

PIK3CD (Human), sequence (O00329 whole entry, looked up): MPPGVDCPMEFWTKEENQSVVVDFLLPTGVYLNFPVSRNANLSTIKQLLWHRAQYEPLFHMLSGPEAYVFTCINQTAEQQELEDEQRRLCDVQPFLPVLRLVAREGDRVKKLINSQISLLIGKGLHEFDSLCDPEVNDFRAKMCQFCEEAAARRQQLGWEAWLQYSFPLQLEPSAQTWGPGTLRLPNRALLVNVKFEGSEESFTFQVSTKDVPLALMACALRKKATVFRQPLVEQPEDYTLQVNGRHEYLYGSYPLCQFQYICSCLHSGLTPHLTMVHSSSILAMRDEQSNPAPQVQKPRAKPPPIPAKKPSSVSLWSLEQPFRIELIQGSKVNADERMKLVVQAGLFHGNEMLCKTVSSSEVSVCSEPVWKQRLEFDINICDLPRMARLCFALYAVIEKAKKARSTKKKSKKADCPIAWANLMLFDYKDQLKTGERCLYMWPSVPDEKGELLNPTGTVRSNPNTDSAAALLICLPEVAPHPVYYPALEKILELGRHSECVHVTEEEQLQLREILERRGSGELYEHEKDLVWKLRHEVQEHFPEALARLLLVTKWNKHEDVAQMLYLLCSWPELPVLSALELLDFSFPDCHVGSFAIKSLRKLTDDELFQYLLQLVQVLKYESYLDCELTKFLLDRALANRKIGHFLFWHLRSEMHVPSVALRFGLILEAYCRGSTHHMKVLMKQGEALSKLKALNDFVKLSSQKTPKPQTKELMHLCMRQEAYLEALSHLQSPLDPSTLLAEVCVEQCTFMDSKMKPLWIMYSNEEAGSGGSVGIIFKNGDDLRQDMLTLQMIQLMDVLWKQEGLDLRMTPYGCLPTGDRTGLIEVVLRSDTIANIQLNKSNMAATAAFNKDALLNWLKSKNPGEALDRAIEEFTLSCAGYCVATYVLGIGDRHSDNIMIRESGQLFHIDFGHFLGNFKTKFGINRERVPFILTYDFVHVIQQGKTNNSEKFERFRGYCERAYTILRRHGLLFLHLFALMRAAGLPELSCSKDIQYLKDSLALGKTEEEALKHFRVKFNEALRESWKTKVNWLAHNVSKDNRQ
PIK3CB (Human), sequence (P42338 whole entry, looked up): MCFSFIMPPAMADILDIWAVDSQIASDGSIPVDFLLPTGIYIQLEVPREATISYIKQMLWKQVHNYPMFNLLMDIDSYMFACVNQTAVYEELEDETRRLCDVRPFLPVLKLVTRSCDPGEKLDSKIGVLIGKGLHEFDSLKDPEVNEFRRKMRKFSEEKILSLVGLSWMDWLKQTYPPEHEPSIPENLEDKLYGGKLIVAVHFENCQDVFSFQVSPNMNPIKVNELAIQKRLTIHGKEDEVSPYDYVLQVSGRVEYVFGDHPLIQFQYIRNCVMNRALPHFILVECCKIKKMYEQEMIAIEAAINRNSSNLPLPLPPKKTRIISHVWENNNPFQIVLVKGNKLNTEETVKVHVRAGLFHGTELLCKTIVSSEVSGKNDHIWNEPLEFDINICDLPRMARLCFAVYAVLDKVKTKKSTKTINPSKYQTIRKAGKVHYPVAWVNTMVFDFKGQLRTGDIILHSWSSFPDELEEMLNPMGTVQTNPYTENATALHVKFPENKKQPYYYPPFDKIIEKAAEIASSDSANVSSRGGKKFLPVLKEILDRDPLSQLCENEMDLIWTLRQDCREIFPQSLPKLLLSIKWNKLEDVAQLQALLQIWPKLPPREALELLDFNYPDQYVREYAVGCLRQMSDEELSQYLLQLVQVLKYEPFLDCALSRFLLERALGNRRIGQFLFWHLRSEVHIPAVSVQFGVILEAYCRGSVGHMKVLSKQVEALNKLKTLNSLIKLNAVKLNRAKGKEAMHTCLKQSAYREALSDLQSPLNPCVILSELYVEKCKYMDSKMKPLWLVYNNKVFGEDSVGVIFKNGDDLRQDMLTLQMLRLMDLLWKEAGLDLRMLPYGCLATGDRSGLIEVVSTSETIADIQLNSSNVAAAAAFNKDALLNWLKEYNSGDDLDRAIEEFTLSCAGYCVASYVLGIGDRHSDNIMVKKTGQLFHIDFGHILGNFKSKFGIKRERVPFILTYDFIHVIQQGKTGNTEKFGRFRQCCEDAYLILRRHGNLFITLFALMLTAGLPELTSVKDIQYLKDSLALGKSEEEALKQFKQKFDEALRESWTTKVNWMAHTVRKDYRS

| IC50 (PIK3CB (Human)) [nM] | IC50 (PIK3CD (Human)) [nM] | IC50 (PIK3CG (human)) [nM] | SMILES |
| --- | --- | --- | --- |
| 51 | 2 | 1400 | N#Cc1c(N)nc(N)nc1N1CCC[C@H]1c1nc2c(Cl)ccc(Cl)c2c(=O)n1-c1cccc(C(N)=O)c1 |
| 420 | 49 | 7400 | N#Cc1c(N)ncnc1N1CCC[C@H]1c1nc2cccc(Cl)c2c(=O)n1-c1cccc(NC(=O)Nc2ccccn2)c1 |
|  |  | > 10000 | CCNC(=O)Nc1ccc(Cl)c(-n2c([C@H](C)Nc3ncnc(N)c3C#N)nc3cccc(Cl)c3c2=O)c1 |
| 97 | 38 | 7800 | COCCNC(=O)Nc1cccc(-n2c([C@@H]3CCCN3c3ncnc(N)c3C#N)nc3cccc(Cl)c3c2=O)c1 |
| 23 | 11 | 3900 | C[C@H](Nc1ncnc(N)c1C#N)c1nc2cccc(Cl)c2c(=O)n1-c1cccc(NC(=O)Nc2cccnc2C(F)(F)F)c1 |
